Experimental data: patent US11344554B2, “Animal and human anti-malarial agents” (Celgene Corporation, priority 2016, dated 2022)

Test system: Plasmodium falciparum
Test: Plasmodium falciparum in vitro [3H]-hypoxanthine parasite growth inhibition assay
Format: cell-based
Details: Erythrocyte, P. falciparum asexual blood stage parasites in human erythrocytes, [3H]-hypoxanthine uptake, read-out: Act Class (IC50 activity level)

IC50 [nM]	SMILES
100 to 200	FC(F)(F)c1cc(Cl)cc(Nc2nc3cnc(NC4CCOCC4)nc3n2C2CCNCC2)c1 [Cpd 51, N8-(3-chloro-5-(trifluoromethyl)phenyl)-9-(piperidin-4-yl)-N2-(tetrahydro-2H-pyran-4-yl)-9H-purine-2,8-diamine]
< 100	CC1(Nc2ncc3nc(Nc4cc(Cl)cc(Cl)c4)n(C4CCNCC4)c3n2)CC1 [Cpd 41, N8-(3,5-dichlorophenyl)-N2-(1-methylcyclopropyl)-9-(piperidin-4-yl)-9H-purine-2,8-diamine]
200 to 500	CC(C)(C)Nc1ncc2nc(Nc3cccc(C(F)F)c3)n(C3CCNCC3)c2n1 [Cpd 33, N2-tert-butyl-N8-(3-(difluoromethyl)phenyl)-9-(piperidin-4-yl)-9H-purine-2,8-diamine]
< 100	CC(C)(C)Nc1ncc2nc(Nc3cc(Cl)cc(C(F)(F)F)c3)n(C3CCNCC3)c2n1 [Cpd 27, N2-tert-butyl-N8-(3-chloro-5-(trifluoromethyl)phenyl)-9-(piperidin-4-yl)-9H-purine-2,8-diamine]
< 100	CC1(Nc2ncc3nc(Nc4cc(F)cc(Cl)c4)n(C4CCNCC4)c3n2)CC1 [Cpd 64, N8-(3-chloro-5-fluorophenyl)-N2-(1-methylcyclopropyl)-9-(piperidin-4-yl)-9H-purine-2,8-diamine]
100 to 200	CC(N)CCn1c(Nc2cc(Cl)cc(C(F)(F)F)c2)nc2cnc(NC3CCCC3)nc21 (stereo not drawn) [Cpd 111, 9-(3-aminobutyl)-N8-(3-chloro-5-(trifluoromethyl)phenyl)-N2-cyclopentyl-9H-purine-2,8-diamine]
< 100	CN1CCC(n2c(Nc3ccc(Cl)c(Cl)c3)nc3cnc(NC(C)(C)C)nc32)CC1 [Cpd 36, N2-tert-butyl-N8-(3,4-dichlorophenyl)-9-(1-methylpiperidin-4-yl)-9H-purine-2,8-diamine]
500 to 1200	CC(C)(C)Nc1ncc2nc(Nc3cccc(Cl)c3F)n(C3CCNCC3)c2n1 [Cpd 47, N2-tert-butyl-N8-(3-chloro-2-fluorophenyl)-9-(piperidin-4-yl)-9H-purine-2,8-diamine]
100 to 200	FC(F)(F)c1cc(Nc2nc3cnc(NC4CCCC4)nc3n2C2CCNCC2)ccc1Cl [Cpd 87, N8-(4-chloro-3-(trifluoromethyl)phenyl)-N2-cyclopentyl-9-(piperidin-4-yl)-9H-purine-2,8-diamine]
200 to 500	CC(C)(C)Nc1ncc2nc(Nc3ccc(C(F)(F)F)c(Cl)c3)n(C3CCNCC3)c2n1 [Cpd 82, N2-tert-butyl-N8-(3-chloro-4-(trifluoromethyl)phenyl)-9-(piperidin-4-yl)-9H-purine-2,8-diamine]
< 100	CC(C)(C)Nc1ncc2nc(Nc3cc(Cl)cc(Cl)c3)n(C3CCNCC3)c2n1 [Cpd 20, N2-tert-butyl-N8-(3,5-dichlorophenyl)-9-(piperidin-4-yl)-9H-purine-2,8-diamine]
200 to 500	CC(C)(C)Nc1ncc2nc(Nc3cccc(C(F)(F)F)c3)n(CCCN)c2n1 [Cpd 11, 9-(3-aminopropyl)-N2-tert-butyl-N8-(3-(trifluoromethyl)phenyl)-9H-purine-2,8-diamine]
< 100	FC(F)(F)c1cc(Cl)cc(Nc2nc3cnc(NC4CCCC4)nc3n2C2CCNCC2)c1 [Cpd 53, N8-(3-chloro-5-(trifluoromethyl)phenyl)-N2-cyclopentyl-9-(piperidin-4-yl)-9H-purine-2,8-diamine]
100 to 200	CC(C)(C)Nc1ncc2nc(Nc3cc(F)cc(F)c3)n(C3CCNCC3)c2n1 [Cpd 28, N2-tert-butyl-N8-(3,5-difluorophenyl)-9-(piperidin-4-yl)-9H-purine-2,8-diamine]

SMILES	IC50 [nM]
CC(C)(C)Nc1ncc2nc(Nc3cccc(C(F)(F)F)c3)n(CCN3CCNCC3)c2n1 [Cpd 22, N2-tert-butyl-9-(2-(piperazin-1-yl)ethyl)-N8-(3-(trifluoromethyl)phenyl)-9H-purine-2,8-diamine]	500 to 1200
